Format in all cases: physicochemical
Data set [1] in a line: Cyclic voltammetry (three-electrode cell, glassy carbon working electrode, Ag/AgCl reference). The note with it: for redox stability (irreversible side reactions): 5 mV/s, cycling 0 V up to about 1.2 V; for oxidation potential: glassy carbon; for observed oxidation potential: 1 mM in 0.5 M sulfuric acid, scan rate 20 mV/s, 0 V to 1 V. The protocol:
Cyclic voltammetry (CV) measurements: CV experiments were performed in custom-made three-electrode electrochemical cells with 3 mm diameter glassy carbon working electrode, a Ag/AgCl reference electrode and a platinum wire counter electrode using 1470E SOLARTRON ANALYTICAL INSTRUMENT.

A short description of data set [2]: Solubility in aqueous acid. The note with it: aqueous acid / acidic conditions.
The nature of data set [3]: Galvanostatic bulk electrolysis cycling. The note with it: 1 mM in 3.0 M sulfuric acid, constant current 2.68 mA, cut-off 0.25 V to 0.85 V. As for the experimental part: Galvanostatic bulk electrolysis: Galvanostatic cycling test was performed with a three-electrode bulk electrolysis electrochemical cell using 1470E SOLARTRON ANALYTICAL INSTRUMENT. Reticulated vitreous carbon was used as the working electrode, Ag/AgCl electrode was used as the reference electrode and coiled platinum enclosed in glass tubes with porous ceramic frit was used as the counter electrode.

A short description of data set [4]: Diffusion coefficient measurement using Randle-Sevcik equation. The note with it: scan rates 10-100 mV/s. The protocol: Diffusion coefficient measurement: Diffusion coefficients were measured using Randle-Sevcik equation as shown below. In this equation, ip is the peak current, n represents the number of electrons transferred in the redox reaction, F is the Faraday's constant, A is the electrode area, c represents the concentration, v is the scan rate, D is the diffusion coefficient, R is the gas constant and T is the absolute temperature.

Where [5] appears, read: 5 mM in 1.0 M sulfuric acid, scan rate 5 mV/s.

Structures are written as SMILES. Entries after “also recorded” stand apart in the source; their conditions may differ.

Regarding `CC1(C)CC(N)CC(C)(C)N1[O]` [4-NH2-TEMPO, 4-amino-2,2,6,6-tetramethylpiperidyl-1-oxyl], the “redox stability (irreversible side reactions)” value in data set [1] (5 mM in 1.0 M sulfuric acid) is given as “irreversible reduction; also recorded: greater redox stability (i.e., less severe irreversible side reactions) than 4-OH-TEMPO”. Further, in data set [1] (setting [5]), the “oxidation potential higher than 4-OH-TEMPO” value was determined as 0.09 V and the oxidation potential is 0.92 V (vs. AG/AgCl). The solubility entry in data set [2] was “higher solubility than 4-OH-TEMPO”.

For the molecule `CC1(C)CC(O)CC(C)(C)N1[O]` [4-OH-TEMPO, reference compound], the “redox stability (irreversible side reactions)” value in data set [1] (5 mM in 1.0 M sulfuric acid) is on record as “irreversible reduction”. Moreover, the oxidation potential in data set [1] (setting [5]) is reported as 0.83 V (vs. AG/AgCl).

`CN(C)c1cc(S(=O)(=O)O)c(O)c(S(=O)(=O)O)c1` [DADPS, 5-(dimethylamino)-2-hydroxybenzene-1,3-disulfonic acid]: the observed oxidation potential in data set [1] is given as 0.66 V (vs. AG/AgCl). Moreover, in data set [3], the “capacity and capacity retention” value is listed as “very similar”; the “potential in bulk electrolysis relative to unsubstituted aminophenol (DMAP)” value is listed as “increased potential”.

As for `CN(C)c1ccc(O)cc1` [DMAP, 4-dimethylaminophenol], the observed oxidation potential in data set [1] was 0.56 V (vs. AG/AgCl). Besides, in data set [4] (1 mM in 0.5 M sulfuric acid), the diffusion coefficient is 3.9×10^−6 cm^2/s. In addition, the “capacity and capacity retention” value in data set [3] is on record as “very similar”.

Turning to `NCCc1ccc(O)c(O)c1` [dopamine, 3,4-dihydroxyphenethylamine, reference compound], the diffusion coefficient in data set [4] (50 mM in 0.5 M sulfuric acid) is given as 2.43×10^−6 cm^2/s.

The values above are taken from patent publication US10553890B2, “Aqueous redox flow batteries” (UCHICAGO ARGONNE, LLC, priority 2017, dated 2020).
